Measured values as given in US9012470B2 (Dart NeuroScience (Cayman) Ltd., priority 2010, dated 2015).
Structures can show the parent of a compound that is named as a salt.

Experiments:
[1] = system: benzodiazepine site of GABAA; experiment: Binding assay, benzodiazepine site of GABAA (binding assay 1: rat brain, (3H)-flunitrazepam; binding assay 2: bovine hippocampal membranes, [3H]-RY80); settings: radioligand binding; for % Inhibition at 0.1 μM: 0.1 μM test compound; for % Inhibition at 10 μM: 10 μM test compound
Experimental: The ability of a compound disclosed herein to act as ligand to the benzodiazepine site of GABAA can be determined using pharmacological models which are well known in the art using the following assay.
Binding assay 1: Whole brain (except cerebellum) of male Wistar derived rats weighing 175±25 g were used to prepare GABAA central benzodiazepine receptor in Na—K phosphate buffer pH 7.4. A 5 mg aliquot was incubated with 1 nM (^3H)-flunitrazepam for 60 minutes at 25° C. Experiments were performed in the presence or absence of 30 μM of GABA. Non-specific binding was estimated in the presence of 10 μM of diazepam. Membranes were filtered and washed, the filters were then counted to determine (^3H)-flunitrazepam specifically bound. Test compounds were tested in duplicate according to the required concentrations (Damm, H. W., et al. (1978) Res. Comm. Chem. Pathol. Pharmacol. 22: 597-560 incorporated herein in its entirety; Speth, R. C., et al. (1979) Life Sci. 24: 351-357 incorporated herein in its entirety).
Receptor Source: Bovine hippocampal membranes
Radioligand: [3H]-RY80 (40-80 Ci/mmol)
Final ligand concentration—[0.8 nM]
Non-specific Determinant: L-655,708—[0.5 μM]
Binding assay 2 followed procedures based on Li and Szabo (Li M., Szabo A., Rosenberg H. Evaluation of native GABAA receptors containing an α5 subunit. Eur. J. Pharmacol. 413: 63-72 (2001)). Incubation Conditions: Reactions are carried out in 50 mM Tris-Citrate (pH 7.8) containing 200 mM NaCl at 0-4° C. for 60 minutes. The reaction is terminated by rapid vacuum filtration onto glass fiber filters. Radioactivity trapped onto the filters is determined and compared to control values in order to ascertain any interactions of test compound with the benzodiazepine (central) binding site.

GABAA receptors = experiment: Electrophysiology assay, two-electrode voltage clamp in Xenopus oocytes expressing GABAA receptors; format: cell-based; settings: GABA EC10, screening concentration of 10 μM, subunit combination not stated
Experimental: mRNA was prepared from lyophilized plasmid pellets containing cDNA inserts encoding the specific GABAA receptor subunit. cDNAs encoding the α2, α3, and γ3 subunits were subcloned into pBluescript, SK^−. cDNAs encoding the α1 and α5 subunits were subcloned into prC while cDNA encoding the β2 subunit was subcloned into pcDNA1. The cDNA construct encoding the γ2s subunit is in the pGH19 expression construct. Overnight cultures of transformed DH5a bacterial cells were performed to grow sufficient quantities for maxiprep isolation of the plasmid cDNA. The resulting plasmid cDNA was linearized by digestion with an appropriate restriction enzyme that cleaves distal to the cDNA insert (XbaI for α1,2, β2, and γ3 or NotI for α3,5 and γ2, respectively). Following digestion, plasmid cDNA was treated with proteinase K and extracted with phenol/chloroform/isoamyl alcohol, followed by ethanol precipitation. cDNA quality was assessed by agarose-gel electrophoresis (1.5% agarose gel). Samples were stored at −20° C. until use. In vitro transcription was performed with T7 RNA polymerase. mRNA was then stored at −80° C. until use. Plasmids were linearized with appropriate restriction enzymes before in vitro transcription using the Message Machine kit (Ambion, Austin, Tex.).
GABAA Receptor Expression in Xenopus oocytes.
GABAA receptor expression in Xenopus oocytes: Following 45 min of 0.15% Tricaine anesthesia, an ovarian section containing the follicular oocytes was removed from the frog through a lateral abdominal incision. Oocytes were immediately placed in a calcium-free solution (NaCl 96 mM, MgCl2 1 mM, KCl 2 mM, Hepes 50 mM, pyruvate 2.5 mM, gentamycin 100 μg/mL, penicillin-streptomycin 50 U/mL, pH 7.4). Following 1.5-2 hour incubation in 0.2% collagenase (type II, Sigma Chemical Co., St. Louis, Mo.) at room temperature, individual Dumont stage V and VI oocytes were transferred to an incubator and maintained overnight in Barth's solution (NaCl 84 mM, NaHCO3 2.4 mM, MgSO4 0.82 mM, KCl 1 mM, Ca(NO3)2 0.33 mM, CaCl2 0.41 mM, Tris/HCl 7.5 mM, pyruvate 2.5 mM, gentamycin 50 μg/mL, penicillin-streptomycin, 100 units/mL, pH 7.4) at 18-20° C. and used for experiments 1-5 days post-injection. Oocytes were injected solution using an electronic microinjector (Drummond, Broomall, Pa.) with 50 nL of RNA containing 0.3-0.5 ng of each subunit RNA in a 1:1:1 ratio. The injected oocytes were used for experiments after 1-5 days of incubation in Barth's solution at 18-20° C.
Measurements of ion currents from oocytes expressing GABAA receptors were performed using a Warner two-electrode voltage-clamp amplifier (Warner Instruments, Inc., Foster City, Calif.) (Park-Chung, M., et al. (1999) Brain Res. 830: 72-87 incorporated herein in its entirety). Microelectrodes were fabricated from borosilicate glass capillaries with a programmed pipette puller (Sutter Instrument Co., Calif.). Microelectrode resistance was 1-3 MΩ when filled with 3 M KCl. The oocyte recording chamber was continuously perfused with Ringer solution. Oocytes were clamped at a holding potential of −70 mV during data acquisition. The membrane current was filtered at 10 Hz and sampled at 100 Hz. Compounds were applied by a gravity-driven external perfusion system. The working volume of the recording chamber was 30 μL and the rate of the perfusion was approximately 50 μL/sec. Compound application was 10-20 sec followed by a 90 sec wash. Data acquisition and external perfusion was computer controlled by custom-developed software. All experiments were performed at room temperature (22-24° C.). Dose-response data from each oocyte were fitted to the Hill equation by non-linear regression using the equation: IGABA=Emax/(1+(EC50/c)^n^H)
Emax is the maximum response, EC50 is the concentration producing 50% of the maximal response, nH is the Hill coefficient and c is the concentration of agonist. […]

Compound | % Inhibition at 0.1 μM [1] | % Inhibition at 10 μM [1] | EP Modulation (GABAA receptors)
CN(C)CCNC(=O)n1ncc2c3nn(-c4ccccc4)c(=O)c-3c[nH]c21 [Compound 7a, N-(2-(dimethylamino)ethyl)-3-oxo-2-phenyl-2,3-dihydrodipyrazolo[3,4-b:3′,4′-d]pyridine-6(5H)-carboxamide] | C (C indicates % inhibition <20%) | B (B indicates % inhibition <80% and >20%) | E (E indicates negative modulation <20%)
CCNC(=O)n1ncc2c3nn(-c4ccccn4)c(=O)c-3c[nH]c21 [Compound 6m, N-ethyl-3-oxo-2-(pyridin-2-yl)-2,3-dihydrodipyrazolo[3,4-b:3′,4′-d]pyridine-6(5H)-carboxamide] | C (C indicates % inhibition <20%) | A (A indicates % inhibition >80%) | D (D indicates negative modulation >20%)
CCNC(=S)n1ncc2c3nn(-c4ccc(Cl)cc4)c(=O)c-3c[nH]c21 [Compound 6as, 2-(4-chlorophenyl)-N-ethyl-3-oxo-2,3-dihydrodipyrazolo[3,4-b:3′,4′-d]pyridine-6(5H)-carbothioamide] | – | A (A indicates % inhibition >80%) | D (D indicates negative modulation >20%)
CCCCNC(=O)n1ncc2c3nn(-c4ccccc4)c(=O)c-3c[nH]c21 [Compound 6f, N-butyl-3-oxo-2-phenyl-2,3-dihydrodipyrazolo[3,4-b:3′,4′-d]pyridine-6(5H)-carboxamide.TFA] | – | A (A indicates % inhibition >80%) | D (D indicates negative modulation >20%)
CC(C)N1CCN(C(=O)n2ncc3c4nn(-c5ccccc5)c(=O)c-4c[nH]c32)CC1 [Compound 7d, 6-(4-isopropylpiperazine-1-carbonyl)-2-phenyl-5,6-dihydrodipyrazolo[3,4-b:3′,4′-d]pyridin-3(2H)-one] | C (C indicates % inhibition <20%) | C (C indicates % inhibition <20%) | Positive
CCNC(=O)n1nc(C)c2c3nn(-c4ccccc4)c(=O)c-3c[nH]c21 [Compound 6l, N-ethyl-8-methyl-3-oxo-2-phenyl-2,3-dihydrodipyrazolo[3,4-b:3′,4′-d]pyridine-6(5H)-carboxamide] | A (A indicates % inhibition >80%) | A (A indicates % inhibition >80%) | D (D indicates negative modulation >20%)
CCCNC(=O)n1ncc2c3nn(-c4ccccc4)c(=O)c-3c[nH]c21 [Compound 6d, 3-oxo-2-phenyl-N-propyl-2,3-dihydrodipyrazolo[3,4-b:3′,4′-d]pyridine-6(5H)-carboxamide] | – | A (A indicates % inhibition >80%) | E (E indicates negative modulation <20%)
CCCCNC(=O)n1cc2[nH]cc3c(=O)n(-c4ccccc4)nc-3c2c1 [Compound 13i, N-Butyl-3-oxo-2-phenyl-2,3-dihydropyrazolo[3,4-d]pyrrolo[3,4-b]pyridine-7(5H)-carboxamide] | A (A indicates % inhibition >80%) | A (A indicates % inhibition >80%) | E (E indicates negative modulation <20%)
CC(C)NC(=O)n1ncc2c3nn(-c4ccccn4)c(=O)c-3c[nH]c21 [Compound 6n, N-isopropyl-3-oxo-2-(pyridin-2-yl)-2,3-dihydrodipyrazolo[3,4-b:3′,4′-d]pyridine-6(5H)-carboxamide] | C (C indicates % inhibition <20%) | C (C indicates % inhibition <20%) | E (E indicates negative modulation <20%)
CCNC(=O)n1ncc2c3nn(-c4ccsc4)c(=O)c-3c[nH]c21 [Compound 6u, N-ethyl-3-oxo-2-(thiophen-3-yl)-2,3-dihydrodipyrazolo[3,4-b:3′,4′-d]pyridine-6(5H)-carboxamide] | – | A (A indicates % inhibition >80%) | D (D indicates negative modulation >20%)
CCCNC(=O)n1cc2[nH]cc3c(=O)n(-c4ccccc4)nc-3c2c1 [Compound 13c, 3-Oxo-2-phenyl-N-propyl-2,3-dihydropyrazolo[3,4-d]pyrrolo[3,4-b]pyridine-7(5H)-carboxamide] | A (A indicates % inhibition >80%) | A (A indicates % inhibition >80%) | D (D indicates negative modulation >20%)
CCNC(=O)n1cc2[nH]cc3c(=O)n(-c4ccccc4F)nc-3c2c1 [Compound 13d, N-Ethyl-2-(2-fluorophenyl)-3-oxo-2,3-dihydropyrazolo[3,4-d]pyrrolo[3,4-b]pyridine-7(5H)-carboxamide] | B (B indicates % inhibition <80% and >20%) | A (A indicates % inhibition >80%) | D (D indicates negative modulation >20%)
O=C(NCC(F)(F)F)n1ncc2c3nn(-c4ccccc4)c(=O)c-3c[nH]c21 [Compound 7b, 3-oxo-2-phenyl-N-(2,2,2-trifluoroethyl)-2,3-dihydrodipyrazolo[3,4-b:3′,4′-d]pyridine-6(5H)-carboxamide] | B (B indicates % inhibition <80% and >20%) | A (A indicates % inhibition >80%) | D (D indicates negative modulation >20%)
CCNC(=O)n1ncc2c3nn(-c4ccc(Cl)cc4)c(=O)c-3c[nH]c21 [Compound 6o] | B (B indicates % inhibition <80% and >20%) | A (A indicates % inhibition >80%) | E (E indicates negative modulation <20%)
